Assay results: patent publication US20190233906A1, “MUTANT STRAINS OF STAPHYLOCOCCUS AUREUS WITH MULTIPLE INACTIVATED TCS SYSTEMS” (priority 2015, published 2019)
Like-named read-outs stand apart in the source and are kept apart here. Marks after values point to notes of the source that are not given here.

Assays:
S. aureus 8325 ΔXV = test: Antimicrobial susceptibility test (VITEK 2 system); type: cell-based, Staphylococcus aureus; as to Antimicrobial susceptibility (R/S): key: R: resistant; S: susceptible
Experimental: (§1) Antibiotic sensitivity tests were performed at the University Clinic of Navarra. Antibiotics routinely used in clinic for treatment of S. aureus infections were tested by VITEK 2 system. • Growth Kinetics Analysis

S. aureus MW2 ΔXV = test: Antimicrobial susceptibility test (VITEK 2 system); type: cell-based, Staphylococcus aureus; conditions: for Susceptibility of MW2 ΔXV mutant compared with parental strain: MW2 ΔXV vs MW2; for Antimicrobial susceptibility (R/S) / MIC, Minimal inhibitory concentration: strain MW2 ΔXV; as to Antimicrobial susceptibility (R/S): key: R: resistant; S: susceptible
Experimental: as §1

S. aureus MW2 = type: cell-based, Staphylococcus aureus; conditions: strain MW2
Experimental: as §1

S. aureus 8325 = type: cell-based, Staphylococcus aureus
Experimental: as §1

[1] = tested on: ArlR response regulator of the arlRS two-component system of S. aureus MW2
For Antimicrobial susceptibility (R/S) in this document: key: R: resistant; S: susceptible.

Compound | Antimicrobial susceptibility (R/S) (S. aureus 8325 ΔXV; strain 8325 ΔXV) | Antimicrobial susceptibility (R/S) (S. aureus MW2 ΔXV) | Antimicrobial susceptibility (R/S) (S. aureus MW2) | Antimicrobial susceptibility (R/S) (S. aureus 8325; strain 8325) | other results
CC(=O)NC[C@H]1CN(c2ccc(N3CCOCC3)c(F)c2)C(=O)O1 [Linezolid] | S | S | S | S | Susceptibility of MW2 ΔXV mutant compared with parental strain (S. aureus MW2 ΔXV): more susceptible; MIC, Minimal inhibitory concentration (S. aureus MW2 ΔXV): (1)^a; MIC, Minimal inhibitory concentration (S. aureus MW2): (2)^a
C/C(=C\C(=O)OCCCCCCCCC(=O)O)C[C@@H]1OC[C@H](C[C@@H]2O[C@H]2[C@@H](C)[C@H](C)O)[C@@H](O)[C@H]1O [Mupirocin] | S | S | S | S | –
O=C1CN(/N=C/c2ccc([N+](=O)[O-])o2)C(=O)N1 [Nitrofurantoin] | S | S | S | – | MIC, Minimal inhibitory concentration (S. aureus MW2 ΔXV): (≤16)^a; MIC, Minimal inhibitory concentration (S. aureus MW2): (32)^a; Antimicrobial susceptibility (R/S) (S. aureus 8325): S
Cc1onc(-c2ccccc2)c1C(=O)N[C@@H]1C(=O)N2[C@@H]1SC(C)(C)[C@@H]2C(=O)O [Oxacillin] | S | R | R | S | Susceptibility of MW2 ΔXV mutant compared with parental strain (S. aureus MW2 ΔXV): more susceptible; MIC, Minimal inhibitory concentration (S. aureus MW2 ΔXV): (2)^a; MIC, Minimal inhibitory concentration (S. aureus MW2): (≥4)^a
CO[C@H]1/C=C/O[C@@]2(C)Oc3c(C)c(O)c4c(O)c(c(/C=N/N5CCN(C)CC5)c(O)c4c3C2=O)NC(=O)/C(C)=C\C=C\[C@H](C)[C@H](O)[C@@H](C)[C@@H](O)[C@@H](C)[C@H](OC(C)=O)[C@@H]1C [Rifampicin] | S | S | S | S | –
CN(C)c1cc(NC(=O)CNC(C)(C)C)c(O)c2c1C[C@H]1C[C@H]3[C@H](N(C)C)C(O)=C(C(N)=O)C(=O)[C@@]3(O)C(O)=C1C2=O [Tigecycline] | S | S | S | S | –
NC[C@H]1O[C@H](O[C@H]2[C@H](O)[C@@H](O[C@H]3O[C@H](CO)[C@@H](O)[C@H](N)[C@H]3O)[C@H](N)C[C@@H]2N)[C@H](N)C[C@@H]1O [Tobramycin] | S | S | S | S | –
CN[C@H](CC(C)C)C(=O)N[C@H]1C(=O)N[C@@H](CC(N)=O)C(=O)N[C@H]2C(=O)N[C@H]3C(=O)N[C@H](C(=O)N[C@H](C(=O)O)c4cc(O)cc(O)c4-c4cc3ccc4O)[C@H](O)c3ccc(c(Cl)c3)Oc3cc2cc(c3O[C@@H]2O[C@H](CO)[C@@H](O)[C@H](O)[C@H]2O[C@H]2C[C@](C)(N)[C@H](O)[C@H](C)O2)Oc2ccc(cc2Cl)[C@H]1O [Vancomycin] | S | S | S | S | Susceptibility of 8325 ΔXV mutant compared with parental strain (S. aureus 8325 ΔXV; 8325 ΔXV vs 8325): higher susceptibility; MIC, Minimal inhibitory concentration (S. aureus 8325 ΔXV; strain 8325 ΔXV): (≤0.5)^a; MIC, Minimal inhibitory concentration (S. aureus 8325; strain 8325): (1)^a
ArlS H242A (ArlS allele that keeps phosphatase activity but cannot phosphorylate ArlR) | – | – | – | – | Protein A expression by Western blotting in arlRS mutant [1]: The resulting strain showed a level of expression of protein A similar to that of the strain complemented with ArlR alone
ArlS histidine kinase of the arlRS two-component system of S. aureus MW2 | – | – | – | – | Protein A expression by Western blotting [1]: They first confirmed that phosphorylation of ArlR by ArlS was necessary to induce protein A expression; Protein A expression by Western blotting in ΔXV strain complemented with arlR plus one HK [1]: In addition to ArlS itself, GraS is able to restore protein A expression in ΔXV strain
Gentamicin | S | S | S | S | –
Quinuspristin/Dalfopristin | S | S | S | S | –
Teicoplanin | S | S | S | S | –
Trimethoprim/Sulfamethoxazole | S | S | S | S | –
histidine kinase of the srrAB two-component system of S. aureus MW2 (SrrB by Table 1; printed 'SrrA' in the sentence) | – | – | – | – | Protein A expression in ΔXV strain complemented with arlR plus one HK [1]: mainly GraS and to a lower level SrrA were able to activate ArlR
